{"source": "patent US8143228B2", "about": "“Agents capable of downregulating an MSF-A dependent HIF-1α and use thereof in cancer treatment” (Medical Research Fund of Tel Aviv Sourasky Medical Center, priority 2004, dated 2012)", "tested_on": "HIF-1α and Ub-HIF-1α", "test": "Proteasome inhibition and HIF-1α ubiquitination, Western blot", "format": "cell-based", "settings": "PC-3-Neo cells, 4 hours, 5 and 20 μM", "method": "FIGS. 19a-b are Western blot analyses depicting the effect of proteasome inhibition on HIF-1α (FIG. 19a) or actin (FIG. 19b) expression levels in PC-3-MSF-A or PC-3-Neo cells. PC-3-Neo (lanes 1-3) and PC-3-MSF-A (lanes 4-6) cells were treated for 4 hours with either 0.1 DMSO (lanes 1 and 4) or with 5 (lanes 2 and 5) and 20 (lanes 3 and 6) μM MG-132. Whole cell lysates were prepared and equal amounts of protein from each cell lysate were resolved by SDS-PAGE, transferred and immunoblotted with antibodies against HIF-1α (FIG. 19a) and actin (FIG. 19b). Ub-HIF-1α points to ubiquitinated HIF-1α protein species.\nFIGS. 20a-b are Western blot analyses of HIF-1α immunoprecipitates depicting the expression level of HIF-1α (FIG. 20a) and ubiquitin (FIG. 20b) in PC-3-Neo and PC-3-MSF-A cells. PC-3-Neo (lanes 1-2) and PC-3-MSF-A (lanes 3-4) cells were treated for 4 hours with either 0.1 DMSO (lanes 1 and 3) or with 10 μM MG-132 (lanes 2 and 4). Whole cell lysates were prepared and subjected to immunoprecipitation (IP) with HIF-1α antibody. Immunoprecipitates were resolved on SDS-PAGE and immunoblotted (IB) with HIF-1α (FIG. 20a) and ubiquitin (FIG. 20b) antibodies. Ub-HIF-1α points to ubiquitinated HIF-1α protein species.\nTo study the ubiquitination of the endogenous HIF-1α in cells over-expressing MSF-A protein, the proteasome inhibitor MG-132 was used. […]", "note": "Where a SMILES comes first, the peptide text is derived from it. The star is where a group is joined. Cbz = O=C(OCc1ccccc1)*"}
{"compound": "CC(C)C[C@@H](C=O)NC(=O)[C@H](CC(C)C)NC(=O)[C@H](CC(C)C)NC(=O)OCc1ccccc1", "note": "[MG-132] (Cbz-Leu-Leu-Leu-aldehyde)", "values": [{"measurement": "expression of HIF-1α and Ub-HIF-1α", "result": "induced the expression of HIF-1α and Ub-HIF-1α"}]}
